# Test results taken from US20250171438A1 (Agios Pharmaceuticals, Inc., priority 2022, published 2025).
# Biological target: T1, human PAH with the R408W mutation (Homo sapiens, UniProt P00439, R408W)
# T1 construct: expressed in transfected cells
# T1 sequence (P00439 1-452 R408W): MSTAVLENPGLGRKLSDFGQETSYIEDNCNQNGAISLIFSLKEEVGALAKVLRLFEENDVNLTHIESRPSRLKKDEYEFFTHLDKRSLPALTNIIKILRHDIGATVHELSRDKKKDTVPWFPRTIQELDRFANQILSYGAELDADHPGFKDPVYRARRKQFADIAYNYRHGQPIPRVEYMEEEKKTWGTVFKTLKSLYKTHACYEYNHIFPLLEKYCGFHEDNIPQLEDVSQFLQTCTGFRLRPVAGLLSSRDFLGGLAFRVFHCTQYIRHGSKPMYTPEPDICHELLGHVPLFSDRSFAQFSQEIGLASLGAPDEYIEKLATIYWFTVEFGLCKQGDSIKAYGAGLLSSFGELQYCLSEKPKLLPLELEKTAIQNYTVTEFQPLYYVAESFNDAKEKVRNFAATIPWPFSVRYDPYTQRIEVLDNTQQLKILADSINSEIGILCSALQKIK
# Assay: Cell Based Phenylalanine Flux Assay
# Conditions: A375 cells expressing human R408W PAH; 24 hrs compound incubation; 13C-Tyrosine by LC-MS; average where tested multiple times; read-out: AC50
row,AC50 [nM],Compound
1,< 500,O=C(c1nnc(-c2c(F)cccc2F)o1)N1CCc2[nH]cnc2[C@H]1c1nc2ccccc2s1 [Example 1367]
2,< 500,"O=C(c1nnc(-c2c(F)cccc2F)o1)N1CCc2[nH]cnc2[C@@H]1c1nc2ccccc2s1 [Example 1368, (R)-(4-(benzo[d]thiazol-2-yl)-6,7-dihydro-1H-imidazo[4,5-c]pyridin-5(4H)-yl)(5-(2,6-difluorophenyl)-1,3,4-oxadiazol-2-yl)methanone]"
3,< 500,O=C(c1nnc(-c2ccc(F)cc2)o1)N1CCc2[nH]cnc2[C@H]1c1nc2ccccc2s1 [Example 1369]
4,1000 to 5000,"O=C(c1nnc(-c2ccc(F)cc2)o1)N1CCc2[nH]cnc2[C@@H]1c1nc2ccccc2s1 [Example 1370, (R)-(4-(benzo[d]thiazol-2-yl)-6,7-dihydro-1H-imidazo[4,5-c]pyridin-5(4H)-yl)(5-(4-fluorophenyl)-1,3,4-oxadiazol-2-yl)methanone]"
5,< 500,Cc1nc(-c2ccccn2)oc1C(=O)N1CCc2[nH]cnc2[C@H]1c1nc2ccccc2s1 [Example 1371]
6,> 5000,"Cc1nc(-c2ccccn2)oc1C(=O)N1CCc2[nH]cnc2[C@@H]1c1nc2ccccc2s1 [Example 1372, (R)-(4-(benzo[d]thiazol-2-yl)-6,7-dihydro-1H-imidazo[4,5-c]pyridin-5(4H)-yl)(4-methyl-2-(pyridin-2-yl)oxazol-5-yl)methanone]"
7,< 500,O=C(c1cnc(-c2ncccc2F)s1)N1CCc2[nH]cnc2[C@H]1c1nc2ccccc2s1 [Example 1373]
8,500 to 1000,"O=C(c1cnc(-c2ncccc2F)s1)N1CCc2[nH]cnc2[C@@H]1c1nc2ccccc2s1 [Example 1374, (R)-(4-(benzo[d]thiazol-2-yl)-6,7-dihydro-1H-imidazo[4,5-c]pyridin-5(4H)-yl)(2-(3-fluoropyridin-2-yl)thiazol-5-yl)methanone]"
9,1000 to 5000,"Cc1nc(-c2cnn(C)c2)oc1C(=O)N1CCc2[nH]cnc2[C@@H]1c1nc2ccccc2s1 [Example 1375, (R)-(4-(benzo[d]thiazol-2-yl)-6,7-dihydro-1H-imidazo[4,5-c]pyridin-5(4H)-yl)(4-methyl-2-(1-methyl-1H-pyrazol-4-yl)oxazol-5-yl)methanone]"
10,< 500,Cc1nc(-c2cnn(C)c2)oc1C(=O)N1CCc2[nH]cnc2[C@H]1c1nc2ccccc2s1 [Example 1376]
11,> 5000,"Cc1nc(-c2cnn(C)c2)oc1C(=O)N1CCc2[nH]cnc2[C@@H]1c1nc2c(F)cccc2s1 [Example 1377, (R)-(4-(4-fluorobenzo[d]thiazol-2-yl)-6,7-dihydro-1H-imidazo[4,5-c]pyridin-5(4H)-yl)(4-methyl-2-(1-methyl-1H-pyrazol-4-yl)oxazol-5-yl)methanone]"
12,< 500,"Cc1nc(-c2cnn(C)c2)oc1C(=O)N1CCc2[nH]cnc2[C@H]1c1nc2c(F)cccc2s1 [Example 1378, (S)-(4-(4-fluorobenzo[d]thiazol-2-yl)-6,7-dihydro-1H-imidazo[4,5-c]pyridin-5(4H)-yl)(4-methyl-2-(1-methyl-1H-pyrazol-4-yl)oxazol-5-yl)methanone]"
13,< 500,Cc1nn(C)cc1-c1ncc(C(=O)N2CCc3[nH]cnc3[C@H]2c2nc3ccccc3s2)s1 [Example 1379]
14,1000 to 5000,"Cc1nn(C)cc1-c1ncc(C(=O)N2CCc3[nH]cnc3[C@@H]2c2nc3ccccc3s2)s1 [Example 1380, (R)-(4-(benzo[d]thiazol-2-yl)-6,7-dihydro-1H-imidazo[4,5-c]pyridin-5(4H)-yl)(2-(1,3-dimethyl-1H-pyrazol-4-yl)thiazol-5-yl)methanone]"
15,< 500,Cc1nn(C)cc1-c1ncc(C(=O)N2CCc3[nH]cnc3[C@H]2c2nc3ccccc3s2)o1 [Example 1381]
16,1000 to 5000,"Cc1nn(C)cc1-c1ncc(C(=O)N2CCc3[nH]cnc3[C@@H]2c2nc3ccccc3s2)o1 [Example 1382, (R)-(4-(benzo[d]thiazol-2-yl)-6,7-dihydro-1H-imidazo[4,5-c]pyridin-5(4H)-yl)(2-(1,3-dimethyl-1H-pyrazol-4-yl)oxazol-5-yl)methanone]"
17,< 500,Cc1c(-c2ncc(C(=O)N3CCc4[nH]cnc4[C@H]3c3nc4ccccc4s3)o2)cnn1C [Example 1383]
18,1000 to 5000,"Cc1c(-c2ncc(C(=O)N3CCc4[nH]cnc4[C@@H]3c3nc4ccccc4s3)o2)cnn1C [Example 1384, (R)-(4-(benzo[d]thiazol-2-yl)-6,7-dihydro-1H-imidazo[4,5-c]pyridin-5(4H)-yl)(2-(1,5-dimethyl-1H-pyrazol-4-yl)oxazol-5-yl)methanone]"
19,< 500,Cn1cc(-c2ncc(C(=O)N3CCc4[nH]cnc4[C@H]3c3nc4ccccc4s3)s2)c(C2CC2)n1 [Example 1385]
20,1000 to 5000,"Cn1cc(-c2ncc(C(=O)N3CCc4[nH]cnc4[C@@H]3c3nc4ccccc4s3)s2)c(C2CC2)n1 [Example 1386, (R)-(4-(benzo[d]thiazol-2-yl)-6,7-dihydro-1H-imidazo[4,5-c]pyridin-5(4H)-yl)(2-(3-cyclopropyl-1-methyl-1H-pyrazol-4-yl)thiazol-5-yl)methanone]"

row,AC50 [nM],Compound
1,< 500,O=C(c1scnc1C1CC1)N1CCc2[nH]cnc2[C@H]1c1nc2ccccc2s1 [Example 1387]
2,1000 to 5000,"O=C(c1scnc1C1CC1)N1CCc2[nH]cnc2[C@@H]1c1nc2ccccc2s1 [Example 1388, (R)-(4-(benzo[d]thiazol-2-yl)-6,7-dihydro-1H-imidazo[4,5-c]pyridin-5(4H)-yl)(4-cyclopropylthiazol-5-yl)methanone]"
3,< 500,Cn1cc(-c2ncc(C(=O)N3CCc4[nH]cnc4[C@H]3c3nc4ccccc4s3)s2)c(C(F)(F)F)n1 [Example 1389]
4,< 500,O=C(c1cnc(-c2cnn(CC(F)(F)F)c2)o1)N1CCc2[nH]cnc2[C@H]1c1nc2ccccc2s1 [Example 1391]
5,1000 to 5000,"O=C(c1cnc(-c2cnn(CC(F)(F)F)c2)o1)N1CCc2[nH]cnc2[C@@H]1c1nc2ccccc2s1 [Example 1392, (R)-(4-(benzo[d]thiazol-2-yl)-6,7-dihydro-1H-imidazo[4,5-c]pyridin-5(4H)-yl)(2-(1-(2,2,2-trifluoroethyl)-1H-pyrazol-4-yl)oxazol-5-yl)methanone]"
6,< 500,Cc1nc(C(F)(F)F)oc1C(=O)N1CCc2[nH]cnc2[C@H]1c1nc2ccccc2s1 [Example 1393]
7,1000 to 5000,"Cc1nc(C(F)(F)F)oc1C(=O)N1CCc2[nH]cnc2[C@@H]1c1nc2ccccc2s1 [Example 1394, (R)-(4-(benzo[d]thiazol-2-yl)-6,7-dihydro-1H-imidazo[4,5-c]pyridin-5(4H)-yl)(4-methyl-2-(trifluoromethyl)oxazol-5-yl)methanone]"
8,< 500,Cc1nc(C2CC2)oc1C(=O)N1CCc2[nH]cnc2[C@H]1c1nc2ccccc2s1 [Example 1395]
9,> 5000,"Cc1nc(C2CC2)oc1C(=O)N1CCc2[nH]cnc2[C@@H]1c1nc2ccccc2s1 [Example 1396, (R)-(4-(benzo[d]thiazol-2-yl)-6,7-dihydro-1H-imidazo[4,5-c]pyridin-5(4H)-yl)(2-cyclopropyl-4-methyloxazol-5-yl)methanone]"
10,< 500,Cc1nc(C(C)C)oc1C(=O)N1CCc2[nH]cnc2[C@H]1c1nc2ccccc2s1 [Example 1397]
11,1000 to 5000,"Cc1nc(C(C)C)oc1C(=O)N1CCc2[nH]cnc2[C@@H]1c1nc2ccccc2s1 [Example 1398, (R)-(4-(benzo[d]thiazol-2-yl)-6,7-dihydro-1H-imidazo[4,5-c]pyridin-5(4H)-yl)(2-isopropyl-4-methyloxazol-5-yl)methanone]"
12,< 500,Cc1nc(CC2CC2)oc1C(=O)N1CCc2[nH]cnc2[C@H]1c1nc2ccccc2s1 [Example 1399]
13,1000 to 5000,"Cc1nc(CC2CC2)oc1C(=O)N1CCc2[nH]cnc2[C@@H]1c1nc2ccccc2s1 [Example 1400, (R)-(4-(benzo[d]thiazol-2-yl)-6,7-dihydro-1H-imidazo[4,5-c]pyridin-5(4H)-yl)(2-(cyclopropylmethyl)-4-methyloxazol-5-yl)methanone]"
14,< 500,"O=C(c1cnc(C(F)(F)F)o1)N1CCc2[nH]cnc2[C@H]1c1nc2c(F)cccc2s1 [Example 1401, (S)-(4-(4-fluorobenzo[d]thiazol-2-yl)-6,7-dihydro-1H-imidazo[4,5-c]pyridin-5(4H)-yl)(2-(trifluoromethyl)oxazol-5-yl)methanone]"
15,1000 to 5000,"O=C(c1cnc(C(F)(F)F)o1)N1CCc2[nH]cnc2[C@@H]1c1nc2c(F)cccc2s1 [Example 1402, (R)-(4-(4-fluorobenzo[d]thiazol-2-yl)-6,7-dihydro-1H-imidazo[4,5-c]pyridin-5(4H)-yl)(2-(trifluoromethyl)oxazol-5-yl)methanone]"
16,500 to 1000,O=C(c1cnc(-c2ccnc(C(F)(F)F)c2)s1)N1CCc2[nH]cnc2[C@H]1c1nc2ccccc2s1 [Example 1403]
17,1000 to 5000,"O=C(c1cnc(-c2ccnc(C(F)(F)F)c2)s1)N1CCc2[nH]cnc2[C@@H]1c1nc2ccccc2s1 [Example 1404, (R)-(4-(benzo[d]thiazol-2-yl)-6,7-dihydro-1H-imidazo[4,5-c]pyridin-5(4H)-yl)(2-(2-(trifluoromethyl)pyridin-4-yl)thiazol-5-yl)methanone]"
18,< 500,Cc1nn(C)c(C)c1-c1ncc(C(=O)N2CCc3[nH]cnc3[C@H]2c2nc3ccccc3s2)s1 [Example 1405]
19,500 to 1000,"Cc1nn(C)c(C)c1-c1ncc(C(=O)N2CCc3[nH]cnc3[C@@H]2c2nc3ccccc3s2)s1 [Example 1406, (R)-(4-(benzo[d]thiazol-2-yl)-6,7-dihydro-1H-imidazo[4,5-c]pyridin-5(4H)-yl)(2-(1,3,5-trimethyl-1H-pyrazol-4-yl)thiazol-5-yl)methanone]"
